From ChEMBL document CHEMBL4000241, “Investigation of the anti-angiogenesis effects induced by deoxypodophyllotoxin-5-FU conjugate C069 against HUVE cells” (Bioorg Med Chem Lett, 2017)
The source made the active and inactive calls. The calls are words filed in the database; no cut-off is given here.

Assays:
WI-38 [1] = assay: Antiproliferative activity against human WI38 cells at 20 to 100 uM after 12 to 48 hrs by MTT assay; type: cell-based; settings: wi-38, 100 µM
HUVEC [2] = assay: Antimigratory activity in HUVEC assessed as reduction in wound-healing at 0.1 to 0.3 uM after 12 hrs by inverted phase contrast microscopy; type: functional, cell-based; settings: Homo sapiens
HUVEC [3] = assay: Antiangiogenic activity in HUVEC assessed as inhibition of formation of tubular structures after 6 hrs by inverted phase contrast microscopy based matrigel assay; type: functional, cell-based; settings: Homo sapiens
HUVEC [4] = assay: Antiproliferative activity against HUVEC at 0.1 to 0.3 uM after 6 hrs by MTT assay; type: functional, cell-based; settings: Homo sapiens
Chorioallantoic membrane = assay: Antiangiogenic activity in chicken fertilized egg chorioallantoic membrane assessed as reduction in branching of blood vessels after 48 hrs; type: functional, tissue-based; settings: Gallus gallus
HUVEC [5] = assay: Vascular disrupting activity in HUVEC assessed as disruption of preformed tube like structure after 6 hrs by inverted phase contrast microscopy based matrigel assay; type: functional, cell-based; settings: Homo sapiens
HUVEC [6] = assay: Downregulation of MMP-9 expression in HUVEC at 0.2 to 0.5 uM after 24 hrs by Western blot analysis; type: functional, cell-based; settings: Homo sapiens
HUVEC [7] = assay: Downregulation of MMP-2 expression in HUVEC at 0.2 to 0.5 uM after 24 hrs by Western blot analysis; type: functional, cell-based; settings: Homo sapiens
[8] = molecular target: T1, Catenin beta-1 (Homo sapiens) (UniProt P35222); assay: Inhibition of beta-catenin phosphorylation in HUVEC after 24 hrs by Western blot analysis
T1 sequence (whole entry): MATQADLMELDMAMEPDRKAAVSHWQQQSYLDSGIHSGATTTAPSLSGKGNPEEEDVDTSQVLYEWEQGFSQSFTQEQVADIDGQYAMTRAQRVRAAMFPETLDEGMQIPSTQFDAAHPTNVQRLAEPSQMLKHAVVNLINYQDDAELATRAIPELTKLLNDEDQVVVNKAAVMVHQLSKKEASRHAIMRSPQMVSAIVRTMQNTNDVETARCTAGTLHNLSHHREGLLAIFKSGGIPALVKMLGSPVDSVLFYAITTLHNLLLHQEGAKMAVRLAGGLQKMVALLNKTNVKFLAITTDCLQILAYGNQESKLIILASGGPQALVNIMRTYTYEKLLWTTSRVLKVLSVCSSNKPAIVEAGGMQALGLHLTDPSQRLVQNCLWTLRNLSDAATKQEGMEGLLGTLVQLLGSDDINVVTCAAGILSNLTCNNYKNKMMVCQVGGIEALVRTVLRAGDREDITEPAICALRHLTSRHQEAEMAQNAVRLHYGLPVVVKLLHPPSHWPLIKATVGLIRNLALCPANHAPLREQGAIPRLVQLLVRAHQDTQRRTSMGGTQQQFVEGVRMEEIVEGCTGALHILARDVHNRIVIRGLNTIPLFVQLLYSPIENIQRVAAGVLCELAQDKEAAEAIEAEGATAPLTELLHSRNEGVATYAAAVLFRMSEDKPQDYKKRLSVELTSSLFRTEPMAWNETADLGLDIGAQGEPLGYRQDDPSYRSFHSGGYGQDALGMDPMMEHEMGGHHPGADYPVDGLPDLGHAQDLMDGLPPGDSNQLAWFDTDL

Homo sapiens = organism: Homo sapiens; assay: Inhibition of Akt phosphorylation in HUVEC after 24 hrs by Western blot analysis
WI-38 [9] = assay: Antiproliferative activity against human WI38 cells at 30 uM after 12 to 48 hrs by MTT assay; type: cell-based; settings: wi-38, 30 µM

## COc1cc([C@@H]2c3cc4c(cc3C[C@H]3COC(=O)[C@@H]32)OCO4)cc(OC)c1OC(=O)CCC(=O)NCCCCCCNC(=O)Cn1cc(F)c(=O)[nH]c1=O
WI-38 [1]
  Activity: Non-Toxic
HUVEC [2]
  Activity: Active
HUVEC [3]
  Activity: Dose-dependent effect
HUVEC [4]
  Activity: Active
Chorioallantoic membrane
  Activity: Dose-dependent effect
HUVEC [5]
  Activity: Dose-dependent effect
HUVEC [6]
  Activity: Active
HUVEC [7]
  Activity: Active
[8]
  inhibition: Dose-dependent effect
Homo sapiens
  inhibition: Dose-dependent effect

## COc1cc([C@@H]2c3cc4c(cc3[C@@H](O[C@@H]3O[C@@H]5CO[C@@H](C)O[C@H]5[C@H](O)[C@H]3O)[C@H]3COC(=O)[C@H]23)OCO4)cc(OC)c1O [ETOPOSIDE]
WI-38 [9]
  Activity: Non-Toxic
